The target of test [1] is T1, Proteasome subunit beta type-8 (Homo sapiens, UniProt P28062).
T1 sequence (P28062 whole entry): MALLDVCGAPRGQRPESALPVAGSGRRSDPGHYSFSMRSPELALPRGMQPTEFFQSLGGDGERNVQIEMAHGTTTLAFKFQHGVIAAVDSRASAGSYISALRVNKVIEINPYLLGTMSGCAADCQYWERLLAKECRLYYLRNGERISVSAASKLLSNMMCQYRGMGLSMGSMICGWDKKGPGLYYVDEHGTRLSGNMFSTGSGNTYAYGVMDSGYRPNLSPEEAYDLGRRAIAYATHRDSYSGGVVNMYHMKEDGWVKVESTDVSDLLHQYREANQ
Nature of the test: Inhibition of 20S proteasome subunit beta-5i (unknown origin) using Ac-ANW-AMC as substrate and measured after 30 mins.

Test [2] deals with T2, Proteasome Macropain subunit MB1 (Homo sapiens, UniProt P28074).
T2 sequence (P28074 whole entry): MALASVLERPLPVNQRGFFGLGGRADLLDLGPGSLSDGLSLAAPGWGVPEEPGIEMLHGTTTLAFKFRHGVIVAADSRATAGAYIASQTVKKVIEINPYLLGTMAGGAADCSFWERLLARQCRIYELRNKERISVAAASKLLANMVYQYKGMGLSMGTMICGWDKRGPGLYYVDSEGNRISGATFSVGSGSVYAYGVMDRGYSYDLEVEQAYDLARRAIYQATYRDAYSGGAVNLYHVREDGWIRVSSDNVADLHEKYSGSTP
Nature of the test: Inhibition of 20S proteasome subunit beta-5c (unknown origin) using Ac-WLA-AMC as substrate and measured after 30 mins.

The nature of test [3]: Selectivity ratio of IC50 for inhibition of 20S proteasome beta 5c subunit (unknown origin) to IC50 for inhibition of 20S proteasome subunit beta-5i.
A further test has as its system DOHH-2. Nature of the test: Antiproliferative activity against human DOHH-2 cells assessed as growth inhibition at 0.2 uM measured after 72 hrs by MTT assay. The settings on record: read-out: GI. It counts as functional.
The next test has as its system Pfeiffer. As to the kind of experiment: Antiproliferative activity against human Pfeiffer cells assessed as growth inhibition at 0.2 uM measured after 72 hrs by MTT assay. In kind it is functional. Conditions: read-out: GI.
Test [4] deals with HCT-116. Nature of the test: Antiproliferative activity against human HCT-116 cells assessed as growth inhibition at 0.2 uM measured after 72 hrs by MTT assay. In kind it is functional. The settings on record: read-out: GI. A general note: Tetrazolium dyes change colour on reduction, which living cells bring about.
A further test deals with HT-29. As to the kind of experiment: Antiproliferative activity against human HT-29 cells assessed as growth inhibition at 0.2 uM measured after 72 hrs by MTT assay. In kind it is functional. The settings on record: read-out: GI.
For another test, the system named is MCF7. As to the kind of experiment: Antiproliferative activity against human MCF7 cells assessed as growth inhibition at 0.2 uM measured after 72 hrs by MTT assay. In kind it is functional. Conditions: read-out: GI.
For test [5], the system named is THP-1. Nature of the test: Antiinflammatory activity against LPS-stimulated human THP-1 cells assessed inhibition of TNF-alpha release at 40 uM measured by ELISA. In kind it is functional, cell-based. A general note: In an ELISA, binding on a coated surface is turned into a signal by an enzyme label.
In test [6] the test system is THP-1. Nature of the test: Antiinflammatory activity against LPS-stimulated human THP-1 cells assessed inhibition of IL-6 release at 40 uM measured by ELISA. It counts as functional, cell-based.
Test [7] concerns HCT-116. As to the kind of experiment: Antiproliferative activity against human HCT-116 cells assessed as growth inhibition measured after 72 hrs by CCK-8 assay. The settings on record: HCT-116, 72 h. In kind it is functional, cell-based.

The text below walks through data of ChEMBL document CHEMBL5154800, “Identification of N, C-capped di- and tripeptides as selective immunoproteasome inhibitors” (Eur J Med Chem, 2022).

As usually defined, the IC50 is the concentration that gives 50% inhibition.

The source made the active and inactive calls. The rule behind the calls is not given here.

Take `Cc1ccc(CNC(=O)[C@H](Cc2c[nH]c3ccccc23)NC(=O)[C@H](CCC(=O)NC(C)(C)C)NC(=O)CCNC(=O)CCl)cc1`: the concentration for half-maximal inhibition (IC50) stood at 7.33 nM in test [1] and 13.7 nM in [2]. Besides, the Ratio IC50 in test [3] is 2. Besides, the inhibition of growth at 0.2 µM is under 20% with DOHH-2; 28% in the test on Pfeiffer; 29% in the test with HCT-116 [4]; under 20% in the test with HT-29; under 20% in the test with MCF7.
In the case of `CC(C)(C)NC(=O)CC[C@H](NC(=O)CCNC(=O)/C(C#N)=C/c1ccc(Cl)cc1)C(=O)N[C@@H](Cc1ccccc1)C(=O)NCc1cccc2ccccc12`, the Ratio IC50 in [3] was 124. For the same molecule, the inhibition of growth at 0.2 µM was 34% in the test on DOHH-2; 32% in the test with Pfeiffer; 26% in the test on HCT-116 [4]; under 20% with HT-29; under 20% in the test on MCF7. For the same molecule, the outcome in the test with THP-1 [5] and in the test with THP-1 [6] was Active.
Turning to `Cc1ccc(CNC(=O)[C@H](Cc2ccccc2)NC(=O)[C@H](CCC(=O)NC(C)(C)C)NC(=O)[C@H](CNC(=O)CCl)NC(=O)CCCc2ccccc2)cc1`, the inhibition of growth at 0.2 µM was 25% in the test with DOHH-2; 23% with Pfeiffer; 82% in the test on HCT-116 [4]; 53% in the test with HT-29; under 20% with MCF7. The IC50 with HCT-116 [7] amounted to 880 nM.
In the case of `Cc1ccc(CNC(=O)CNC(=O)[C@H](CCC(=O)NC(C)(C)C)NC(=O)[C@H](CNC(=O)CCl)NC(=O)CN2CCOCC2)cc1`, the results for the half-inhibitory concentration (IC50) in test [1] and in [2] were 94.4 nM and 3850 nM, respectively. Besides, the Ratio IC50 in test [3] turned out to be 41.
Consider `COC(=O)C1CCN(C(=O)C[C@H](NC(=O)[C@H](CNC(=O)CCl)NC(=O)CN2CCOCC2)C(=O)N[C@@H](Cc2ccccc2)C(=O)NCc2ccc(C)cc2)CC1`, for which the IC50 was 644 nM in test [1] and over 644 nM in test [2]. The Ratio IC50 in [3] was over 16.
With `Cc1ccc(CNC(=O)[C@H](Cc2ccc([N+](=O)[O-])cc2)NC(=O)[C@H](CCC(=O)NC(C)(C)C)NC(=O)CCNC(=O)CCl)cc1`, the figures for the IC50 (in test [2]; with HCT-116 [7]) were 84.1 nM and 800 nM, respectively. Further, the inhibition of growth at 0.2 µM in the test on DOHH-2 was under 20%; with Pfeiffer, under 20%; in the test on HCT-116 [4], 58%; with HT-29 it was under 20%; with MCF7 it was under 20%.
Take `CCC(=O)NCCC(=O)N[C@@H](CCC(=O)NC(C)(C)C)C(=O)N[C@@H](Cc1ccccc1)C(=O)NCc1cccc2ccccc12`: in [3], the Ratio IC50 worked out at 274. The inhibition of growth at 0.2 µM with DOHH-2, in the test with Pfeiffer, in the test with HCT-116 [4], with HT-29 and with MCF7 was under 20% throughout. For the same molecule, the result in the test with THP-1 [5] and with THP-1 [6] was Active.
As for `Cc1ccc(CNC(=O)[C@H](Cc2ccccc2)NC(=O)[C@H](CCC(=O)NC(C)(C)C)NC(=O)[C@H](CNC(=O)CCl)NS(=O)(=O)c2ccc(C)cc2)cc1`, the inhibition of growth at 0.2 µM is 34% in the test with DOHH-2; 26% in the test with Pfeiffer; 85% in the test with HCT-116 [4]; 59% in the test with HT-29; under 20% in the test on MCF7. For the same molecule, in the test with HCT-116 [7], the IC50 stood at 1090 nM.
For the molecule `Cc1ccc(CNC(=O)[C@H](Cc2ccccc2)NC(=O)[C@H](CCC(=O)NC(C)(C)C)NC(=O)[C@H](CNC(=O)CCl)NC(=O)c2cc(C)on2)cc1`, the inhibition of growth at 0.2 µM with DOHH-2 is under 20%; with Pfeiffer, 30%; in the test with HCT-116 [4], 83%; in the test with HT-29, 54%; in the test with MCF7, under 20%. For the same molecule, in the test with HCT-116 [7], the IC50 was found to be 460 nM.
As for `COC[C@H](NC(=O)[C@H](CCC(=O)NC(C)(C)C)NC(=O)CCNC(=O)CCl)C(=O)NCc1ccc(C)cc1`, the half-inhibitory concentration (IC50) in test [1] was determined as 43.9 nM; in [2] it was 79.4 nM. Also, the Ratio IC50 in test [3] worked out at 2.
`COc1ccc(C[C@H](NC(=O)[C@H](C)NC(=O)CN2CCOCC2)C(=O)NC(Cc2ccccc2)C(=O)[C@@]2(C)CO2)cc1` (stereo partly drawn): the inhibition of growth at 0.2 µM is 56% in the test on DOHH-2; 36% in the test on Pfeiffer; 75% in the test on HCT-116 [4]; 54% in the test with HT-29; under 20% in the test on MCF7. For the same molecule, the half-maximal inhibitory concentration (IC50) in the test with HCT-116 [7] worked out at 730 nM. The result with THP-1 [5] and with THP-1 [6] was Active.
For the molecule `Cc1ccc(CNC(=O)[C@H](Cc2ccc3ccccc3c2)NC(=O)[C@H](CCC(=O)NC(C)(C)C)NC(=O)CCNC(=O)CCl)cc1`, the inhibition of growth at 0.2 µM with DOHH-2 was under 20%; in the test on Pfeiffer, 28%; in the test on HCT-116 [4], 60%; in the test on HT-29, under 20%; in the test on MCF7 it was under 20%. Also, the IC50 with HCT-116 [7] amounted to 1700 nM. Also, the outcome in the test with THP-1 [5] and in the test on THP-1 [6] was Active.
Consider `COc1ccc(C[C@H](NC(=O)[C@H](CCC(=O)NC(C)(C)C)NC(=O)CCNC(=O)CCl)C(=O)NCc2ccc(C)cc2)cc1`, for which, in [3], the Ratio IC50 came to 36. Moreover, the inhibition of growth at 0.2 µM was under 20% with DOHH-2; 28% in the test with Pfeiffer; 29% in the test on HCT-116 [4]; under 20% in the test with HT-29; under 20% in the test with MCF7. Moreover, the outcome in the test on THP-1 [5] and in the test on THP-1 [6] was Active.
Consider `Cc1ccc(CNC(=O)[C@H](Cc2ccccc2)NC(=O)[C@H](CC(=O)NCC2CCCO2)NC(=O)[C@H](CNC(=O)CCl)NC(=O)CN2CCOCC2)cc1` (stereo partly drawn), for which the values for the half-inhibitory concentration (IC50) in [1] and in [2] were 138 nM and 430 nM, respectively. The Ratio IC50 in test [3] turned out to be 3.
Turning to `CC(C)(C)NC(=O)CC[C@H](NC(=O)CCNC(=O)/C(C#N)=C/c1ccc(Cl)cc1)C(=O)N[C@@H](Cc1ccc2ccccc2c1)C(=O)NCc1cccc2ccccc12`, in test [3], the Ratio IC50 stood at 222. Also, the inhibition of growth at 0.2 µM with DOHH-2 is under 20%; with Pfeiffer, 28%; in the test with HCT-116 [4], under 20%; in the test on HT-29, under 20%; in the test with MCF7, under 20%. In addition, the result with THP-1 [5] and in the test on THP-1 [6] was Active.
`Cc1ccc(CNC(=O)[C@H](Cc2ccccc2)NC(=O)[C@H](CC(N)=O)NC(=O)[C@H](CNC(=O)CCl)NC(=O)CN2CCOCC2)cc1`: the figures for the half-maximal inhibitory concentration (IC50) in test [1] and in test [2] were 2760 nM and over 10000 nM, respectively. Besides, the Ratio IC50 in test [3] was over 4. Moreover, the outcome with THP-1 [5] and in the test with THP-1 [6] was Active.
